Measurements from PMC13267291, “In vivo functional profiling and structural characterization of the human GLP1R A316T variant” (Science Advances, 2026).

Assays:
[1] = test system: INS-1 832/3 Glp1r^−/− SNAP/FLAG-hGLP1R^A316T cells; experiment: Lysosomal inhibition assay, surface GLP-1R in INS-1 832/3 cells; format: cell-based, rat; details: 400 nM, 2 hours; comparable to WT; n = 5; Fig. 7D
Method: (§1) INS-1 832/3 Glp1r^−/− SNAP/FLAG-hGLP1R^WT or ^A316T cells on coverslips, mouse hGLP1R^−/− islets transduced with pAV-SNAP/FLAG-hGLP1R^WT or ^A316T adenoviruses, or hGLP1R^A316T/A316T and ^+/+ control islets were incubated for 2 hours ± 400 nM bafilomycin-A1 (Sigma-Aldrich), an established vacuolar H^+-ATPase and lysosomal trafficking inhibitor ([98]), in complete medium. Cells and transduced hGLP1R^−/− islets were then labeled with 1 μM SNAP-Surface 549, and hGLP1R^A316T/A316T versus ^+/+ islets were treated with exendin-9–TMR in complete medium at 37°C for 10 min. Cells were washed and fixed in 4% PFA, mounted in Prolong Diamond antifade reagent with DAPI, while islets were loaded onto glass-bottom MatTek dishes in PBS, and images were acquired by confocal microscopy with a Zeiss LSM-780 inverted confocal laser scanning microscope and a 63×/1.4 numerical aperture oil immersion objective from the Imperial College FILM Facility. Images were analyzed using Fiji.

[2] = test system: hGLP1R^−/− mouse islets transduced with SNAP/FLAG-hGLP1R^WT versus ^A316T; islets from hGLP1R^+/+ versus ^A316T/A316T mice; experiment: Lysosomal inhibition assay, surface GLP-1R in mouse islets; format: cell-based; details: 400 nM, 2 hours; n = 3 and n = 4; Fig. 7E,F
Method: as §1

[3] = test system: human GLP-1R A316T versus WT; experiment: Insulin secretion assay in mouse islets; format: cell-based; details: HFHS-fed mouse islets; 11 mM glucose + 100 nM; fig. S6I
Method: Purified mouse islets used for insulin secretion assays were treated in 24-well nonadherent plates. Eight islets were used per replicate with three technical replicates per condition. For acute studies, islets were preincubated for 1 hour in KRBH buffer containing 0.1% (w/v) bovine serum albumin (BSA) (10775835001, Roche) and 3 mM glucose before incubation with 11 mM glucose ± 100 nM GLP-1RAs or the GLP-1R antagonist exendin-9 in KRBH buffer in a shaking 37°C water bath (80 rpm) for 1 hour. For overnight studies, preincubation was carried out in RPMI 1640 medium containing FBS, P/S, and 3 mM glucose, followed by treatment with medium supplemented with 11 mM glucose ± GLP-1RAs for 16 hours. Supernatants containing secreted insulin were collected, centrifuged at 1000 rpm for 1 min, and transferred to fresh tubes. For total insulin content, islets were lysed using acidic ethanol (75% ethanol, 1.5 mM HCl). Lysates were sonicated 3× 10 s each in a water bath and centrifuged at 10,000g for 10 min, and supernatants were collected. For human islets, the same experiment was performed with islets previously transduced with pAV-SNAP/FLAG-hGLP1R^WT or ^A316T adenoviruses (generated by VectorBuilder) at a multiplicity of infection of 1, 24 hours before the start of experiments. Insulin secretion assays with the human EndoC-βH3 cell line were performed following 3 weeks of treatment with 4-hydroxytamoxifen as above, followed by transduction with pAV-SNAP/FLAG-hGLP1R^WT or ^A316T adenoviruses, with insulin secretion assessed as previously described ([54]), with the following modifications: After preincubation with 0.5 mM glucose KRBH buffer, cells were stimulated with 15 mM glucose ± exendin-4 for 60 min. Total and secreted insulin samples from islets and cells were stored at −20°C until quantification using an Insulin Ultra-Sensitive HTRF kit (#62IN2PEG, Revvity) in a PHERAstar plate reader (BMG Labtech), according to the manufacturer’s instructions.

| Molecule | Surface expression levels of GLP-1R A316T after lysosomal inhibition [1] | Surface GLP-1R A316T after lysosomal inhibition in islets [2] | Basal insulin secretion of A316T islets on exposure to antagonist/inverse agonist [3] |
| --- | --- | --- | --- |
| CO/C1=C\C(C)=C\[C@@H](C)[C@@H](O)[C@@H](C)C/C(C)=C/C=C/[C@H](OC)[C@@H]([C@@H](C)[C@@H](O)[C@H](C)[C@@]2(O)C[C@@H](O)[C@H](C)[C@@H](C(C)C)O2)OC1=O [bafilomycin A1] | complete recovery of surface expression levels | same effect |  |
| exendin-9 |  |  | significantly reduced |
